Results: patent US20240166681A1, “3'3' CYCLIC DINUCLEOTIDES CONTAINING ISONUCLEOTIDIC UNITS” (INSTITUTE OF ORGANIC CHEMISTRY AND BIOCHEMISTRY AS CR, V. …, priority 2021, published 2024)
Read-outs that look alike come from different tables or passages of the source.

Key:
WT STING = WT STING (Homo sapiens, UniProt Q86WV6, H232R); experiment: 293T WT STING standard reporter assay; format: cell-based; parameters: host or cells: 293T (ATCC CRL-3216), stably transfected; conditions: 293T wtSTING-FL cells, no digitonin, 7 h incubation, luciferase reporter
Description: After 5 minutes incubation at room temperature (RT), 250 μL of the mixture was added dropwise to the cells in one well. Cells were incubated 36 hours at 37° C. with 5% CO2, and then detached with 0.05% Trypsin and 0.22 g/L EDTA (both cat. #L0941, Biowest, Riverside, USA).
Transfected cells were seeded onto poly-D-lysine coated six well plates at density 50,000 cells per 1 cm^2 in DMEM medium with high glucose containing 10% heat inactivated FBS, 30 μg/mL blasticidin (cat. #ant-b1-05, InvivoGen, San Diego, USA), 0.06 mg/ml Penicillin G and 0.1 mg/ml Streptomycin Sulfate (both cat. #. L0018, Biowest, Riverside, USA). The medium was replenished every 3-4 days until visible colonies of cells resistant to blasticidin were formed.
Blasticidin resistant cells stably expressing WT STING were further transfected with […] plasmid following the same procedure as described above. […] Homogeneous culture of stably double transfected cells was prepared by limiting dilution of cells in 96 well plates and wells with cells were selected that originated from a single cell.
The medium was removed next day and three-fold serial dilutions of compounds in 100 μl medium were added to the cells. The plates with cells were incubated for 7 hours at 37° C. with 5% CO2. After 50 μl of the medium was removed, 30 μl of ONE-Glo™ Luciferase Assay System reagent (cat. #E6120, Promega, Madison, USA) was added to each well and luminescence was read on Synergy H1 (Biotek, Winooski, USA). […] (cat. #tlrl-nacga23), and 2′2′-cGAMP (cat. #tlrl-nacga22) were purchased from Invivogen (San Diego, USA).

[1] = system: peripheral blood mononuclear cell (PBMC); experiment: Peripheral blood mononuclear cell assay (cytokine levels); format: cell-based; conditions: 1 h with compound, wash, 15 h, average of at least two donors
Description: Selected compounds were tested in an in vitro peripheral blood mononuclear cell (PBMC) assay. Freshly isolated PBMCs were seeded into U-shaped shaped 96-well plates at desity 500,000 cells per well in 50 μl of RPMI 1640 medium supplemented with 10% heat inactivated FBS. Serially dilluted tested compounds were added to wells in 50 μl of cultivation medium and cell were incubated with compounds for 1 h at 37° C. with 5% CO2. Plates with cells were then spun 500 g for 5 minutes and medium was removed. Cells were washed twice with the cell culture medium by the use of centrifugation and gently resuspended in 100 μl medium without compounds. After 15 hour incubation at 37° C. with 5% CO2, the cell culture medium was collected and the levels of interferon-alpha (INF-α), interferon-gamma (INF-γ) and tumor necrosis factor-alpha (TNF-α) were determined with ProcartaPlex Assays (ThermoFisher, Waltham, USA) and MAGPIX System (Merck KGaA, Darmstadt, Germany). GraphPad Prism (San Diego, CA, USA) was used to calculate the 50% effective concentration (EC50) from a 6-point dose-response curve. Values reported are an average of runs from at least two donors.

Chain of WT STING (Q86WV6 whole entry H232R): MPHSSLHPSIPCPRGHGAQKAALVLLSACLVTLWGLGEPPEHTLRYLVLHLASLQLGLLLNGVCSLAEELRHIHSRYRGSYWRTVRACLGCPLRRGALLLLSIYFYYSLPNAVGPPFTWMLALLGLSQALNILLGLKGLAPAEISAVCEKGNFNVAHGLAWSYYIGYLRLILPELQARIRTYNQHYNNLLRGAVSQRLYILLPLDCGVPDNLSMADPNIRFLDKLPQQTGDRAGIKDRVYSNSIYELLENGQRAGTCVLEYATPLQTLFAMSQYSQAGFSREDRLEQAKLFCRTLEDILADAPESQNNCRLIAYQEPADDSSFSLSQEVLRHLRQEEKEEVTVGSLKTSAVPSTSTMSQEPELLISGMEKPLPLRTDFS

SMILES	EC50 (WT STING)	EC50 ([1]; read-out: PBMC EC50 IFN-α)	EC50 ([1]; read-out: PBMC EC50 IFN-γ)	EC50 ([1]; read-out: PBMC EC50 TNF-α)
CC(C)(C)C(=O)OCOP1(=O)OC[C@H]2OC[C@@H](n3cnc4c(N)ncnc43)[C@@H]2OP(=O)(OCOC(=O)C(C)(C)C)OC[C@H]2O[C@@H](n3cnc4c(N)ncnc43)[C@H](F)[C@@H]2O1 (single isomer, unassigned) [Compound 36a]	88 nM	–	–	–
CC(C)(C)C(=O)OCOP1(=O)OC[C@H]2OC[C@@H](n3cnc4c(N)ncnc43)[C@@H]2OP(=O)(OCOC(=O)C(C)(C)C)OC[C@H]2O[C@@H](n3cnc4c(N)ncnc43)[C@H](F)[C@@H]2O1 (single isomer, unassigned) [Compound 36b]	77 nM	–	–	–
CC(C)(C)C(=O)OCOP1(=O)OC[C@H]2OC[C@@H](n3cnc4c(N)ncnc43)[C@@H]2OP(=O)(OCOC(=O)C(C)(C)C)OC[C@H]2O[C@@H](n3cnc4c(N)ncnc43)[C@H](F)[C@@H]2O1 (single isomer, unassigned) [Compound 36c]	52 nM	–	–	–
CC(C)(C)C(=O)OCOP1(=O)OC[C@H]2OC[C@@H](n3cnc4c(N)ncnc43)[C@@H]2OP(=O)(OCOC(=O)C(C)(C)C)OC[C@H]2O[C@@H](n3cnc4c(N)ncnc43)[C@H](F)[C@@H]2O1 (single isomer, unassigned) [Compound 36d]	28 nM	184 nM	115 nM	326 nM
CC1(C(=O)OCOP2(=O)OC[C@H]3OC[C@@H](n4cnc5c(N)ncnc54)[C@@H]3OP(=O)(OCOC(=O)C3(C)CCCCC3)OC[C@H]3O[C@@H](n4cnc5c(N)ncnc54)[C@H](F)[C@@H]3O2)CCCCC1 (single isomer, unassigned) [Compound 56a]	285 nM	–	–	–
CC1(C(=O)OCOP2(=O)OC[C@H]3OC[C@@H](n4cnc5c(N)ncnc54)[C@@H]3OP(=O)(OCOC(=O)C3(C)CCCCC3)OC[C@H]3O[C@@H](n4cnc5c(N)ncnc54)[C@H](F)[C@@H]3O2)CCCCC1 (single isomer, unassigned) [Compound 56b]	44 nM	–	–	–
CC1(C(=O)OCOP2(=O)OC[C@H]3OC[C@@H](n4cnc5c(N)ncnc54)[C@@H]3OP(=O)(OCOC(=O)C3(C)CCCCC3)OC[C@H]3O[C@@H](n4cnc5c(N)ncnc54)[C@H](F)[C@@H]3O2)CCCCC1 (single isomer, unassigned) [Compound 56c]	21 nM	–	–	–
CC1(C(=O)OCOP2(=O)OC[C@H]3OC[C@@H](n4cnc5c(N)ncnc54)[C@@H]3OP(=O)(OCOC(=O)C3(C)CCCCC3)OC[C@H]3O[C@@H](n4cnc5c(N)ncnc54)[C@H](F)[C@@H]3O2)CCCCC1 (single isomer, unassigned) [Compound 56d]	41 nM	325 nM	48 nM	159 nM
CCC(C)(C)C(=O)OCOP1(=O)OC[C@H]2OC[C@@H](n3cnc4c(N)ncnc43)[C@@H]2OP(=O)(OCOC(=O)C(C)(C)CC)OC[C@H]2O[C@@H](n3cnc4c(N)ncnc43)[C@H](F)[C@@H]2O1 (single isomer, unassigned) [Compound 57a]	32 nM	–	–	–
CCC(C)(C)C(=O)OCOP1(=O)OC[C@H]2OC[C@@H](n3cnc4c(N)ncnc43)[C@@H]2OP(=O)(OCOC(=O)C(C)(C)CC)OC[C@H]2O[C@@H](n3cnc4c(N)ncnc43)[C@H](F)[C@@H]2O1 (single isomer, unassigned) [Compound 57b]	18 nM	–	–	–
Nc1nc2c(ncn2[C@@H]2O[C@@H]3COP(=O)(O)O[C@@H]4[C@H](O)[C@@H](COP(=O)(O)O[C@@H]2[C@@H]3O)O[C@H]4n2cnc3c(N)ncnc32)c(=O)[nH]1 [2′2′-cGAMP, reference compound]	10200 nM	–	–	–

Now those with a lower EC50 (WT STING), led by results:

EC50 (WT STING)	SMILES	EC50 ([1]; read-out: PBMC EC50 IFN-α)	EC50 ([1]; read-out: PBMC EC50 IFN-γ)	EC50 ([1]; read-out: PBMC EC50 TNF-α)
13 nM	CCC(C)(C)C(=O)OCOP1(=O)OC[C@H]2OC[C@@H](n3cnc4c(N)ncnc43)[C@@H]2OP(=O)(OCOC(=O)C(C)(C)CC)OC[C@H]2O[C@@H](n3cnc4c(N)ncnc43)[C@H](F)[C@@H]2O1 (single isomer, unassigned) [Compound 57c]	–	–	–
14 nM	CCC(C)(C)C(=O)OCOP1(=O)OC[C@H]2OC[C@@H](n3cnc4c(N)ncnc43)[C@@H]2OP(=O)(OCOC(=O)C(C)(C)CC)OC[C@H]2O[C@@H](n3cnc4c(N)ncnc43)[C@H](F)[C@@H]2O1 (single isomer, unassigned) [Compound 57d]	258 nM	80 nM	206 nM
5 nM	CCCCCCCC(=O)OCOP1(=O)OC[C@H]2OC[C@@H](n3cnc4c(N)ncnc43)[C@@H]2OP(=O)(OCOC(=O)CCCCCCC)OC[C@H]2O[C@@H](n3cnc4c(N)ncnc43)[C@H](F)[C@@H]2O1 (single isomer, unassigned) [Compound 58a]	–	–	–
1 nM	CCCCCCCC(=O)OCOP1(=O)OC[C@H]2OC[C@@H](n3cnc4c(N)ncnc43)[C@@H]2OP(=O)(OCOC(=O)CCCCCCC)OC[C@H]2O[C@@H](n3cnc4c(N)ncnc43)[C@H](F)[C@@H]2O1 (single isomer, unassigned) [Compound 58b]	–	–	–
2 nM	CCCCCCCC(=O)OCOP1(=O)OC[C@H]2OC[C@@H](n3cnc4c(N)ncnc43)[C@@H]2OP(=O)(OCOC(=O)CCCCCCC)OC[C@H]2O[C@@H](n3cnc4c(N)ncnc43)[C@H](F)[C@@H]2O1 (single isomer, unassigned) [Compound 58c]	–	–	–
2 nM	CCCCCCCC(=O)OCOP1(=O)OC[C@H]2OC[C@@H](n3cnc4c(N)ncnc43)[C@@H]2OP(=O)(OCOC(=O)CCCCCCC)OC[C@H]2O[C@@H](n3cnc4c(N)ncnc43)[C@H](F)[C@@H]2O1 (single isomer, unassigned) [Compound 58d]	38 nM	16 nM	37 nM
